Measured values taken from patent publication US8188148B2, “Substituted 1,3-diphenylpropane derivatives, preparations and uses thereof” (Genfit, priority 2006, dated 2012).

Tests used:
db/db mouse = experiment: In vivo evaluation on db/db mouse: body weight, glycemia, insulinemia, plasma lipids; details: 50 mpk per os, 28 days
Experimental: The effect of the compounds according to the invention is evaluated in vivo on the db/db mouse by measuring the body weight evolution, the glucose levels, the insulin levels, the plasma total cholesterol and triglyceride levels, and by analyzing the distribution of cholesterol in different plasma lipoprotein fractions, after 28 days of a per os treatment with compounds according to the invention.
Female db/db mice were kept on a 12 hour/12 hour light/dark cycle at a constant temperature of 20±3° C. After a one week acclimatization period, the mice were weighed and divided into groups of 8 animals selected so as to render uniform the distribution of their body weights and their plasma lipid rates, determined before the experiment. The tested compounds were suspended in carboxymethylcellulose (Sigma C4888) and administered intra-gastric tube feeding once a day for 28 days at the chosen dose. The animals had free access to food and water (standard diet). Taking of food and weight gain are recorded throughout the experiment. At the end of the experiment, the animals were anesthetized after a 4 hour fast, a blood sample was taken using (EDTA) anticoagulant, then the mice were weighed and euthanized. The plasma was separated by centrifugation at 3000 rotations/minute for 20 minutes. The samples were kept at +4° C. The hepatic tissue and skeletal muscle tissue samples were taken and frozen immediately in liquid nitrogen then conserved at −80° C. for later analysis.
Murine plasma glucose is measured out according to an enzyme-colorimetric method using a Glucose RTU kit (Biomérieux). Glucose is transformed into gluconic acid under the action of glucose oxidase; the reaction releases hydrogen peroxide. Hydrogen peroxide is measured according to the Trinder reaction which, under the action of a peroxidase and in the presence of phenol and amino-4-antipyrine, produces water and a colored product, quinoneimine. The color intensity, due to the quinoneimine, is proportional to the amount of glucose present in the sample.
Murine insulin is measured using ELISA method (using the INSKR020 kit from provider Crystal chem.). A microplate is coated with a mouse anti-insulin antibody. Then, the serum to be assayed for insulin is placed onto the plate. A guinea pig anti-insulin antibody is used to recognize the complex formed by the mouse insulin and the anti-insulin monoclonal antibody. Finally an anti-guinea pig antibody labeled with peroxidase is added and bind to the guinea pig anti-insulin antibody. The colorimetric reaction is performed by adding an OPD (ortho phenyl diamine) enzyme substrate. The intensity of the color is proportional to the amount of insulin present in the sample.
Plasma lipid concentrations (total cholesterol and triglycerides) are measured by enzymatic assays (bioMérieux-Lyon-France) according to the provider's recommendations.
The different lipid fractions (VLDL, LDL, HDL) in the plasma were separated using gel-filtration chromatography. Cholesterol concentrations were then measured for each fraction by enzymatic assays (bioMérieux-Lyon-France) according to the provider's recommendations.

[1] = tested on: PPARs target genes (PDK4, ApoCIII); experiment: Hepatic gene expression by quantitative RT-PCR in C57BI6 mouse; type: in vivo; details: C57BI6 mouse, 3, 10, and 30 mpk, 14 days, normalized to 36B4
Experimental: The effectiveness of the compounds according to the invention is also evaluated by measuring, in hepatic tissue, the expression of the genes involved in lipid metabolism. Each level of gene expression is normalized regarding the expression level of the reference gene 36B4. The induction factor is then calculated. The higher the induction factor is, the more the compound promotes hepatic gene expression. […]
Total RNA was extracted from liver fragments by using a NucleoSpin® 96 RNA kit (Macherey Nagel, Hoerdt, France) according to the manufacturer's instructions. 1 μg of total RNA (quantified by spectrophotometry) was then reverse-transcripted into cDNA by means of a 1 hour reaction at 37° C. in a total volume of 20 μl containing a 1× buffer (Sigma), 1.5 mM of DTT, 0.18 mM of dNTPs (Promega), 200 ng of pdN6 (Amersham), 30 U of RNase inhibitor (Sigma), and 1 μl of MMLV-RT (Sigma).
The PCR quantitative experiments were carried out using the MyiQ Single-Color Real-Time PCR Detection System (Biorad, Marnes-la-Coquette, France) and were performed using the iQ SYBR Green Supermix kit according to the provider's recommendations, in 96-well plates in 5 μl of a diluted reverse transcription solution and at a hybridization temperature of 55° C. […]
The amount of fluorescence emitted is directly proportional to the amount of cDNA present at the beginning of the reaction and amplified during the PCR. […]

## Cc1cc(CCC(=O)c2ccc(OC(F)(F)F)cc2)cc(C)c1OC(C)(C)C(=O)O [Compound 1, 2-[2,6-dimethyl-4-[3-[4-(trifluoromethyloxy)phenyl]-3-oxo-propyl]phenoxy]-2-methyl-propanoic acid]
db/db mouse
  HDL-cholesterol fraction (distribution of cholesterol in plasma lipoprotein fractions): significant increase
  glycemia (plasma glucose): significantly reduced
  insulinemia (plasma insulin): significantly reduced
db/db mouse; vs control
  body weight gain: weight loss
  plasma free fatty acids: very significantly decreased
  plasma triglycerides: very significantly decreased
  total plasma cholesterol: significantly increased
[1]
  hepatic expression of the gene coding for ApoCIII: reduction
  hepatic expression of the gene coding for PDK4: significant increase
